Eight cell lines from the supplement of paper PMC10307832 can be followed below.

Holding throughout (assay): relative viability (nuclei count vs DMSO), 5 days (fraction); higher = more cells survive
Compound in the assay “Everolimus + Palbociclib”: CO[C@H]1C[C@@H]2CC[C@@H](C)[C@@](O)(O2)C(=O)C(=O)N2CCCC[C@H]2C(=O)O[C@H]([C@H](C)C[C@@H]2CC[C@@H](OCCO)[C@H](OC)C2)CC(=O)[C@H](C)/C=C(\C)[C@@H](O)[C@@H](OC)C(=O)[C@H](C)C[C@H](C)/C=C/C=C/C=C/1C [Everolimus] + CC(=O)c1c(C)c2cnc(Nc3ccc(N4CCNCC4)cn3)nc2n(C2CCCC2)c1=O [Palbociclib] (partner 0.5 µM)
An outline of the steps: (§1)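 Values are medians from duplicate plates. Each reflects relative viability, defined as the nuclei count of treated wells over that of vehicle wells. Lung cancer cell lines in 1536-well plates were pin-tool dosed one day after seeding with one drug alone or with a fixed anchor-drug dose plus five library-drug doses (not always all listed) in √10 steps, then fixed, stained and imaged at 4× after 5 days.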

Compound in the assay “Everolimus + Alpelisib”: CO[C@H]1C[C@@H]2CC[C@@H](C)[C@@](O)(O2)C(=O)C(=O)N2CCCC[C@H]2C(=O)O[C@H]([C@H](C)C[C@@H]2CC[C@@H](OCCO)[C@H](OC)C2)CC(=O)[C@H](C)/C=C(\C)[C@@H](O)[C@@H](OC)C(=O)[C@H](C)C[C@H](C)/C=C/C=C/C=C/1C [Everolimus] + Cc1nc(NC(=O)N2CCC[C@H]2C(N)=O)sc1-c1ccnc(C(C)(C)C(F)(F)F)c1 [Alpelisib] (partner 2 µM)
An outline of the steps: as §1

Compound in the assay “Everolimus + Bortezomib”: CO[C@H]1C[C@@H]2CC[C@@H](C)[C@@](O)(O2)C(=O)C(=O)N2CCCC[C@H]2C(=O)O[C@H]([C@H](C)C[C@@H]2CC[C@@H](OCCO)[C@H](OC)C2)CC(=O)[C@H](C)/C=C(\C)[C@@H](O)[C@@H](OC)C(=O)[C@H](C)C[C@H](C)/C=C/C=C/C=C/1C [Everolimus] + CC(C)C[C@H](NC(=O)[C@H](Cc1ccccc1)NC(=O)c1cnccn1)B(O)O [Bortezomib] (partner 0.002 µM)
An outline of the steps: as §1

Compound in the assay “Everolimus + Dasatinib”: CO[C@H]1C[C@@H]2CC[C@@H](C)[C@@](O)(O2)C(=O)C(=O)N2CCCC[C@H]2C(=O)O[C@H]([C@H](C)C[C@@H]2CC[C@@H](OCCO)[C@H](OC)C2)CC(=O)[C@H](C)/C=C(\C)[C@@H](O)[C@@H](OC)C(=O)[C@H](C)C[C@H](C)/C=C/C=C/C=C/1C [Everolimus] + Cc1nc(Nc2ncc(C(=O)Nc3c(C)cccc3Cl)s2)cc(N2CCN(CCO)CC2)n1 [Dasatinib] (partner 0.075 µM)
The essentials: as §1

Consider NCI-H441, for which the relative viability with Everolimus + Palbociclib (first compound 0.01 µM) was 0.204; in the assay with Everolimus + Palbociclib (first compound 0.03162 µM) it was 0.188; with Everolimus + Palbociclib (first compound 0.1 µM), 0.153; in the assay with Everolimus + Palbociclib (first compound 0.3162 µM), 0.222; with Everolimus + Palbociclib (first compound 1 µM), 0.207; with Everolimus + Alpelisib (first compound 0.01 µM), 0.515. Besides, the relative viability turned out to be 0.575 with Everolimus + Alpelisib (first compound 0.03162 µM); 0.582 with Everolimus + Alpelisib (first compound 0.1 µM); 0.564 in the assay with Everolimus + Alpelisib (first compound 0.3162 µM); 0.461 with Everolimus + Alpelisib (first compound 1 µM); 0.364 in the assay with Everolimus + Bortezomib (first compound 0.01 µM); 0.497 in the assay with Everolimus + Bortezomib (first compound 0.03162 µM). Further, the relative viability with Everolimus + Bortezomib (first compound 0.1 µM) worked out at 0.504; with Everolimus + Bortezomib (first compound 0.3162 µM), 0.457; in the assay with Everolimus + Bortezomib (first compound 1 µM) it was 0.506; with Everolimus + Dasatinib (first compound 0.01 µM), 0.55; in the assay with Everolimus + Dasatinib (first compound 0.03162 µM), 0.501; in the assay with Everolimus + Dasatinib (first compound 0.1 µM), 0.431. Also, the figures for the relative viability in the assay with Everolimus + Dasatinib (first compound 0.3162 µM) and with Everolimus + Dasatinib (first compound 1 µM) were 0.504 and 0.47, respectively.

For NCI-H1793, the relative viability with Everolimus + Palbociclib (first compound 0.01 µM) came to 0.219; with Everolimus + Palbociclib (first compound 0.03162 µM), 0.19; with Everolimus + Palbociclib (first compound 0.1 µM), 0.246; with Everolimus + Palbociclib (first compound 0.3162 µM), 0.214; in the assay with Everolimus + Palbociclib (first compound 1 µM), 0.166; in the assay with Everolimus + Alpelisib (first compound 0.01 µM), 0.314. In addition, the relative viability with Everolimus + Alpelisib (first compound 0.03162 µM) was found to be 0.225; in the assay with Everolimus + Alpelisib (first compound 0.1 µM), 0.298; with Everolimus + Alpelisib (first compound 0.3162 µM), 0.23; with Everolimus + Alpelisib (first compound 1 µM) it was 0.267; with Everolimus + Dasatinib (first compound 0.01 µM), 0.23; with Everolimus + Dasatinib (first compound 0.03162 µM), 0.256. Moreover, the figures for the relative viability in the assay with Everolimus + Dasatinib (first compound 0.1 µM), with Everolimus + Dasatinib (first compound 0.3162 µM) and with Everolimus + Dasatinib (first compound 1 µM) were 0.209, 0.214 and 0.162, respectively.

In the case of NCI-H23, the relative viability with Everolimus + Palbociclib (first compound 0.01 µM) turned out to be 0.261; with Everolimus + Palbociclib (first compound 0.03162 µM), 0.272; with Everolimus + Palbociclib (first compound 0.1 µM) it was 0.317; in the assay with Everolimus + Palbociclib (first compound 0.3162 µM), 0.232; in the assay with Everolimus + Palbociclib (first compound 1 µM) it was 0.252; in the assay with Everolimus + Alpelisib (first compound 0.01 µM), 0.355. In addition, the relative viability was 0.326 in the assay with Everolimus + Alpelisib (first compound 0.03162 µM); 0.285 with Everolimus + Alpelisib (first compound 0.1 µM); 0.281 with Everolimus + Alpelisib (first compound 0.3162 µM); 0.309 with Everolimus + Alpelisib (first compound 1 µM); 0.497 with Everolimus + Bortezomib (first compound 0.01 µM); 0.471 with Everolimus + Bortezomib (first compound 0.03162 µM). The relative viability turned out to be 0.334 with Everolimus + Bortezomib (first compound 0.1 µM); 0.565 with Everolimus + Bortezomib (first compound 0.3162 µM); 0.555 with Everolimus + Bortezomib (first compound 1 µM); 0.406 with Everolimus + Dasatinib (first compound 0.01 µM); 0.371 with Everolimus + Dasatinib (first compound 0.03162 µM); 0.386 in the assay with Everolimus + Dasatinib (first compound 0.1 µM). Also, the figures for the relative viability with Everolimus + Dasatinib (first compound 0.3162 µM) and in the assay with Everolimus + Dasatinib (first compound 1 µM) were 0.391 and 0.484, respectively.

Consider HARA, for which the relative viability with Everolimus + Palbociclib (first compound 0.01 µM) turned out to be 0.242; with Everolimus + Palbociclib (first compound 0.03162 µM), 0.189; in the assay with Everolimus + Palbociclib (first compound 0.1 µM), 0.218; with Everolimus + Palbociclib (first compound 0.3162 µM), 0.241; with Everolimus + Palbociclib (first compound 1 µM), 0.169; in the assay with Everolimus + Alpelisib (first compound 0.01 µM) it was 0.564. Further, the relative viability in the assay with Everolimus + Alpelisib (first compound 0.03162 µM) turned out to be 0.457; with Everolimus + Alpelisib (first compound 0.1 µM), 0.499; with Everolimus + Alpelisib (first compound 0.3162 µM), 0.507; with Everolimus + Alpelisib (first compound 1 µM), 0.412; with Everolimus + Bortezomib (first compound 0.01 µM), 1.07; with Everolimus + Bortezomib (first compound 0.03162 µM) it was 1.14. The relative viability stood at 0.904 in the assay with Everolimus + Bortezomib (first compound 0.1 µM); 1.11 in the assay with Everolimus + Bortezomib (first compound 0.3162 µM); 1.01 with Everolimus + Bortezomib (first compound 1 µM); 0.199 with Everolimus + Dasatinib (first compound 0.01 µM); 0.244 in the assay with Everolimus + Dasatinib (first compound 0.03162 µM); 0.209 with Everolimus + Dasatinib (first compound 0.3162 µM). The relative viability with Everolimus + Dasatinib (first compound 1 µM) was found to be 0.289.

Take NCI-H1792: the relative viability was determined as 0.776 with Everolimus + Palbociclib (first compound 0.01 µM); 0.518 with Everolimus + Palbociclib (first compound 0.03162 µM); 0.448 in the assay with Everolimus + Palbociclib (first compound 0.1 µM); 0.464 with Everolimus + Palbociclib (first compound 0.3162 µM); 0.376 with Everolimus + Palbociclib (first compound 1 µM); 0.618 with Everolimus + Alpelisib (first compound 0.01 µM). In addition, the relative viability stood at 0.5 in the assay with Everolimus + Alpelisib (first compound 0.03162 µM); 0.312 with Everolimus + Alpelisib (first compound 0.1 µM); 0.222 with Everolimus + Alpelisib (first compound 0.3162 µM); 0.212 with Everolimus + Alpelisib (first compound 1 µM); 0.819 with Everolimus + Bortezomib (first compound 0.01 µM); 0.705 in the assay with Everolimus + Bortezomib (first compound 0.03162 µM). The relative viability came to 0.657 with Everolimus + Bortezomib (first compound 0.1 µM); 0.572 in the assay with Everolimus + Bortezomib (first compound 0.3162 µM); 0.538 with Everolimus + Bortezomib (first compound 1 µM); 0.732 with Everolimus + Dasatinib (first compound 0.01 µM); 0.435 in the assay with Everolimus + Dasatinib (first compound 0.03162 µM); 0.562 with Everolimus + Dasatinib (first compound 0.1 µM). Moreover, the relative viability with Everolimus + Dasatinib (first compound 0.3162 µM) turned out to be 0.518; in the assay with Everolimus + Dasatinib (first compound 1 µM) it was 0.484.

For NCI-H1703, the relative viability with Everolimus + Alpelisib (first compound 0.01 µM) was determined as 0.213; with Everolimus + Alpelisib (first compound 0.03162 µM), 0.22; in the assay with Everolimus + Alpelisib (first compound 0.1 µM), 0.29; with Everolimus + Alpelisib (first compound 0.3162 µM), 0.239; with Everolimus + Alpelisib (first compound 1 µM), 0.338; in the assay with Everolimus + Bortezomib (first compound 0.01 µM), 0.183. Moreover, the relative viability stood at 0.178 with Everolimus + Bortezomib (first compound 0.03162 µM), 0.212 in the assay with Everolimus + Bortezomib (first compound 0.1 µM), 0.213 in the assay with Everolimus + Bortezomib (first compound 0.3162 µM) and 0.186 with Everolimus + Bortezomib (first compound 1 µM).

As to NCI-H1648, the relative viability is 0.257 with Everolimus + Palbociclib (first compound 0.01 µM); 0.21 with Everolimus + Palbociclib (first compound 0.03162 µM); 0.259 with Everolimus + Palbociclib (first compound 0.1 µM); 0.22 with Everolimus + Palbociclib (first compound 0.3162 µM); 0.222 with Everolimus + Palbociclib (first compound 1 µM).

Take CAL-12T: the relative viability in the assay with Everolimus + Palbociclib (first compound 0.01 µM) worked out at 0.461; with Everolimus + Palbociclib (first compound 0.03162 µM), 0.236; in the assay with Everolimus + Palbociclib (first compound 0.1 µM), 0.152; with Everolimus + Palbociclib (first compound 0.3162 µM) it was 0.217; in the assay with Everolimus + Palbociclib (first compound 1 µM), 0.388; with Everolimus + Alpelisib (first compound 0.01 µM), 0.378. For the same cell line, the relative viability was 0.464 with Everolimus + Alpelisib (first compound 0.03162 µM); 0.266 with Everolimus + Alpelisib (first compound 0.1 µM); 0.351 in the assay with Everolimus + Alpelisib (first compound 0.3162 µM); 0.46 with Everolimus + Alpelisib (first compound 1 µM); 0.662 with Everolimus + Bortezomib (first compound 0.01 µM); 0.732 in the assay with Everolimus + Bortezomib (first compound 0.03162 µM). Besides, the relative viability worked out at 0.557 with Everolimus + Bortezomib (first compound 0.1 µM); 0.597 in the assay with Everolimus + Bortezomib (first compound 0.3162 µM); 0.713 with Everolimus + Bortezomib (first compound 1 µM); 0.274 with Everolimus + Dasatinib (first compound 0.01 µM); 0.261 in the assay with Everolimus + Dasatinib (first compound 0.03162 µM); 0.194 with Everolimus + Dasatinib (first compound 0.1 µM). For the same cell line, the relative viability in the assay with Everolimus + Dasatinib (first compound 0.3162 µM) was determined as 0.289; in the assay with Everolimus + Dasatinib (first compound 1 µM) it was 0.189.
